# Article PMC11024869, “The activity of antimicrobial peptoids against multidrug-resistant ocular pathogens” (Contact lens & anterior eye : the journal of the British …, 2024)
# Non-standard residues stand in square brackets, D forms with d. Residues, ends and D or L forms follow the SMILES beside them. Nspe(4-Br) = C[C@H](NCC(=O)O)c1ccc(Br)cc1; Nlys = NCCCCNCC(=O)O
# How the values were obtained:
# Type in all cases: cell-based
# [1] = tested on: Pseudomonas aeruginosa PAO1; settings: PAO1, 24 h
# Source text: (§3) The S. pneumoniae strains used were SP04, SP06 and SP07 [46] and Streptococcus gallolyticus SV06 (all isolated from eyes of contact lens wearers during adverse events); P. aeruginosa PAO1 (which was originally isolated from a wound, and is an invasive strain containing the gene exoS) as well as isolates from microbial keratitis, PA 235 (invasive strain containing exoS), PA216 (a cytotoxic strain containing exoU), PA219 (cytotoxic strain containing exoU), PA 233 (cytotoxic strain containing exoU), with various susceptibilities to antibiotics were also used [14]. C. albicans ATCC 10231, a yeast, isolated from case of a human bronchomycosis, was also evaluated.
# (§4) The peptoids’ minimum inhibitory and bactericidal concentrations (MIC and MBC) were determined using micro broth dilution methods as previously described with slight modifications, [26, 39, 49, 50], and without using acetic acid and bovine serum albumin [39]. Briefly, bacteria or yeast were suspended in Muller Hinton broth (MHB, Oxoid, Thermo Fisher Scientific, Thebarton, SA, Australia) at 0.1 OD660nm, which was equivalent to 1x10^8 colony forming units (CFU) mL^−1. This suspension was further diluted to achieve 5x10^6 CFU mL^−1. The peptoids were diluted in MHB from 250 to 0.24 μg mL^−1 in 96-well polystyrene microplates (COSTAR, Corning Incorporated, New York, NY, USA) [39]. […] This was followed by addition of 100 μL of each microbial suspensions. Wells with only bacteria or the yeast were treated as a negative control, and wells with only MHB medium were treated as a blank. The plates were incubated at 37 °C with shaking at 120 rpm for 24 h. After incubation, the media in each well was serially diluted in phosphate buffered solution and then inoculated onto tryptone soya agar (Oxoid) plates for bacteria, or Sabouraud’s dextrose agar for the yeast, and incubated at 37 °C for 18 hrs. Post incubation, the number of CFUs on the agar plates was counted.
# [2] = tested on: Pseudomonas aeruginosa PA216; settings: PA216, 24 h
# Source text: as §3, §4
# [3] = tested on: Pseudomonas aeruginosa PA219; settings: PA219, 24 h
# Source text: as §3, §4
# [4] = tested on: Pseudomonas aeruginosa PA233; settings: PA233, 24 h
# Source text: All S. aureus strains used were isolated from cases of microbial keratitis (Table 1) with various susceptibilities to antibiotics. The S. pneumoniae strains used were SP04, SP06 and SP07 [46] and Streptococcus gallolyticus SV06 (all isolated from eyes of contact lens wearers during adverse events); P. aeruginosa PAO1 (which was originally isolated from a wound, and is an invasive strain containing the gene exoS) as well as isolates from microbial keratitis, PA 235 (invasive strain containing exoS), PA216 (a cytotoxic strain containing exoU), PA219 (cytotoxic strain containing exoU), PA 233 (cytotoxic strain containing exoU), with various susceptibilities to antibiotics were also used. C. albicans ATCC 10231, a yeast, isolated from case of a human bronchomycosis, was also evaluated.
# The peptoids’ minimum inhibitory and bactericidal concentrations (MIC and MBC) were determined using micro broth dilution methods as previously described with slight modifications, [26, 39, 49, 50], and without using acetic acid and bovine serum albumin [39]. Briefly, bacteria or yeast were suspended in Muller Hinton broth (MHB, Oxoid, Thermo Fisher Scientific, Thebarton, SA, Australia) at 0.1 OD660nm, which was equivalent to 1x10^8 colony forming units (CFU) mL^−1. This suspension was further diluted to achieve 5x10^6 CFU mL^−1. The peptoids were diluted in MHB from 250 to 0.24 μg mL^−1 in 96-well polystyrene microplates (COSTAR, Corning Incorporated, New York, NY, USA). This range was selected to cover the range of MIC values previously reported for ESKAPE pathogens. This was followed by addition of 100 μL of each microbial suspensions. Wells with only bacteria or the yeast were treated as a negative control, and wells with only MHB medium were treated as a blank. The plates were incubated at 37 °C with shaking at 120 rpm for 24 h. After incubation, the media in each well was serially diluted in phosphate buffered solution and then inoculated onto tryptone soya agar (Oxoid) plates for bacteria, or Sabouraud’s dextrose agar for the yeast, and incubated at 37 °C for 18 hrs. Post incubation, the number of CFUs on the agar plates was counted.
# [5] = tested on: Pseudomonas aeruginosa PA235; settings: PA235, 24 h
# Source text: as §3, §4
# [6] = tested on: Staphylococcus aureus SA34; settings: SA34, 24 h
# Source text: as §3, §4
# [7] = tested on: Staphylococcus aureus SA65; settings: SA65, 24 h
# Source text: as §3, §4
# [8] = tested on: Staphylococcus aureus SA113; settings: SA113, 24 h
# Source text: as §3, §4
# [9] = tested on: Staphylococcus aureus SA114; settings: SA114, 24 h
# Source text: as §3, §4
# [10] = tested on: Staphylococcus aureus SA117; settings: SA117, 24 h
# Source text: as §3, §4
# [11] = tested on: Streptococcus pneumoniae SP04; settings: SP04, 24 h
# Source text: as §3, §4
# [12] = tested on: Streptococcus pneumoniae SP06; settings: SP06, 24 h
# Source text: as §3, §4
# [13] = tested on: Streptococcus pneumoniae SP07; settings: SP07, 24 h
# Source text: as §3, §4
# [14] = tested on: Streptococcus gallolyticus SG04; settings: 24 h
# Source text: as §3, §4
# [15] = tested on: viridans group streptococcus SV06; settings: 24 h
# Source text: as §3, §4
# [16] = tested on: Candida albicans ATCC 10231; test: MIC/MBC (fungicidal) micro broth dilution; settings: ATCC 10231 (yeast), MHB, 24 h 37 °C
# Source text: as §3, §4
# horse erythrocytes = test: In vitro assay for hemolysis, horse blood
# Protocol: (§1) Hemolysis caused by the peptoids was measured using 18 to 20 mL of a horse or human blood collected in EDTA-coated tubes which has been centrifuged at 500×g for 5 min. The supernatant was discarded and the pellet containing the cells were resuspended in PBS to a final volume of 20 mL. This step was repeated five times. After the final wash, the pellet was resuspended in PBS at the ratio of 1:10 (1 mL red blood cell: 9 mL PBS) to yield a final red blood cell (RBC) concentration of approximately 5 × 10^8 cells mL^−1. The concentration of RBCs was confirmed using a hemocytometer. The peptoids (stock concentration 2 mM) were diluted sequentially (two-fold dilutions) in PBS to final concentrations of […]. All the dilutions were subsequently mixed with the RBC suspension at the ratio of 1:1. MilliQ water was used as a positive control and PBS was used as a negative control in this assay. All samples were incubated at 37 °C for 3 h. Following incubation, the tubes were centrifuged at 500 x g for five mins, the supernatants were collected, transferred to wells in a 96 well plate and their optical density was measured at 540 nm. The percentage of hemolysis was calculated by dividing the absorbance of the test sample by the absorbance of the positive control, and multiplying by 100. Data are presented as the hemolysis caused by each dilution of peptoid, and as the concentration of peptoid that caused 10 % or 50 % lysis of red blood cells.
# (§2) The geometric mean is the nth root of the multiplied numbers, where n is the total number of data values. A similar formula was used to calculate the selectivity ratio, but by using the concentration of peptoid that caused 10 % hemolysis.
# human erythrocytes = test: In vitro assay for hemolysis, human blood
# Protocol: as §1, §2
structure (smiles),measurement,setting,value
C[C@@H](c1ccc(Br)cc1)N(CC(=O)N(CCCCN)CC(=O)N(CC(=O)N(CC(=O)N(CCCCN)CC(N)=O)[C@@H](C)c1ccc(Br)cc1)[C@@H](C)c1ccc(Br)cc1)C(=O)CN(C(=O)CNCCCCN)[C@@H](C)c1ccc(Br)cc1 [TM14] (H-[Nlys][Nspe(4-Br)][Nspe(4-Br)][Nlys][Nspe(4-Br)][Nspe(4-Br)][Nlys]-NH2),MBC,[1],15 µg/mL
same,MIC,[1],7.8 µg/mL
same,MBC,[2],15 µg/mL
same,MIC,[2],7.8 µg/mL
same,MBC,[3],15(11)/15(11) μg mL^−1
same,MIC,[3],15(11)/15(11) μg mL^−1
same,MBC,[4],31 µg/mL
same,MIC,[4],15 µg/mL
same,MBC,[5],31 µg/mL
same,MIC,[5],15 µg/mL
same,MBC,[6],3.9(2.9)/3.9(2.9) μg mL^−1
same,MIC,[6],3.9(2.9)/3.9(2.9) μg mL^−1
same,MBC,[7],1.9(1.4)/1.9(1.4) μg mL^−1
same,MIC,[7],1.9(1.4)/1.9(1.4) μg mL^−1
same,MBC,[8],3.9 µg/mL
same,MIC,[8],1.9 µg/mL
same,MBC,[9],1.9(1.4)/1.9(1.4) μg mL^−1
same,MIC,[9],1.9(1.4)/1.9(1.4) μg mL^−1
same,MBC,[10],3.9(2.9)/3.9(2.9) μg mL^−1
same,MIC,[10],3.9(2.9)/3.9(2.9) μg mL^−1
same,MBC,[11],15(11)/15(15) μg mL^−1
same,MIC,[11],15(11)/15(15) μg mL^−1
same,MBC,[12],1.9(1.4)/1.9(1.4) μg mL^−1
same,MIC,[12],1.9(1.4)/1.9(1.4) μg mL^−1
same,MBC,[13],15(11)/15(11) μg mL^−1
same,MIC,[13],15(11)/15(11) μg mL^−1
same,MBC,[14],15(11)/15(11) μg mL^−1
same,MIC,[14],15(11)/15(11) μg mL^−1
same,MBC,[15],15(11)/15(11) μg mL^−1
same,MIC,[15],15(11)/15(11) μg mL^−1
same,MIC,[16]; ≥90 % reduction in CFUs,3.9(2.8)/3.9(2.8) μg mL^−1
same,MBC (minimum fungicidal concentration),[16]; ≥99.99 % reduction in CFUs,3.9(2.8)/3.9(2.8) μg mL^−1
same,SR horse blood (ratio HC10 to geometric mean MIC),horse erythrocytes,0.8
same,Horse HC10,"horse erythrocytes; red cells of horse, 3 h",3 µM
same,Horse HC50,"horse erythrocytes; red cells of horse, 3 h",45 µM
same,TI horse blood (ratio HC50 to geometric mean MIC),horse erythrocytes; therapeutic index,11
same,SR human blood (ratio HC10 to geometric mean MIC),human erythrocytes,2
same,Human HC10,"human erythrocytes; red cells of human, 3 h",8 µM
same,Human HC50,"human erythrocytes; red cells of human, 3 h",90 µM
same,TI human blood (ratio HC50 to geometric mean MIC),human erythrocytes; therapeutic index,23
